Here are results for one compound from patent publication US8940313B2, “Tyrosine-based prodrugs of antiviral agents” (priority 2010, dated 2015).

Data set [1] in a line: Oral bioavailability / transport study in mice, plasma LC-MS. The conditions noted are these: oral AUC / intravenous AUC, dose-adjusted, total HPMPA-containing species in plasma.
A further data set deals with cowpox virus. Put plainly: microbe, parasite or virus in culture. The format is cell-based. As to conditions: read-out: IC50 Cow Pox.
A further data set has as its system KB cells. Put plainly: cells. It counts as cell-based. The conditions noted are these: read-out: IC50 KB.
A further data set relates to vaccinia virus. Put plainly: microbe, parasite or virus in culture. The format is cell-based. As to conditions: read-out: IC50 Vaccinia.
In another data set the test system is herpes simplex 1 (HSV-1). Nature of the data set: microbe, parasite or virus in culture. The format is cell-based. As to conditions: read-out: IC50 HSV-1.
The test system of data set [2] is human cytomegalovirus (HCMV). Put plainly: microbe, parasite or virus in culture. The format is cell-based. The conditions noted are these: read-out: IC50 HCMV.

Some results are limits rather than exact numbers.

Regarding `Nc1ncnc2c1ncn2C[C@@H](CO)OCP(=O)(O)O` [Compound 1, (S)-9-(3hydroxy-2-phosphonyl-methoxypropyl)adenine, reference compound], the total oral bioavailability in data set [1] was 5%. Besides, the IC50 was 4 µM in the data set with cowpox virus; over 100 µM with KB cells; 2 µM in the data set on vaccinia virus; 35 µM in the data set with herpes simplex 1 (HSV-1); 0.41 µM in data set [2].

What is called IC50 is the concentration that inhibits the measured activity by half.
